According to ChEMBL document CHEMBL3808348, “Rational Design, Synthesis, and Biological Evaluation of 7-Azaindole Derivatives as Potent Focused Multi-Targeted Kinase Inhibitors” (J Med Chem, 2016):

Experiments:
[1] = molecular target: Serine/threonine-protein kinase B-raf (Homo sapiens) (UniProt P15056); test: Inhibition of full length GST-tagged human recombinant BRAF expressed in baculovirus using Fluorescein-MAP2K1 as substrate at 100 nM
[2] = molecular target: Insulin-like growth factor 1 receptor (Homo sapiens) (UniProt P08069); conditions: 100 nM
Insulin-like growth factor 1 receptor (Homo sapiens), sequence (P08069 31-736 limits assumed): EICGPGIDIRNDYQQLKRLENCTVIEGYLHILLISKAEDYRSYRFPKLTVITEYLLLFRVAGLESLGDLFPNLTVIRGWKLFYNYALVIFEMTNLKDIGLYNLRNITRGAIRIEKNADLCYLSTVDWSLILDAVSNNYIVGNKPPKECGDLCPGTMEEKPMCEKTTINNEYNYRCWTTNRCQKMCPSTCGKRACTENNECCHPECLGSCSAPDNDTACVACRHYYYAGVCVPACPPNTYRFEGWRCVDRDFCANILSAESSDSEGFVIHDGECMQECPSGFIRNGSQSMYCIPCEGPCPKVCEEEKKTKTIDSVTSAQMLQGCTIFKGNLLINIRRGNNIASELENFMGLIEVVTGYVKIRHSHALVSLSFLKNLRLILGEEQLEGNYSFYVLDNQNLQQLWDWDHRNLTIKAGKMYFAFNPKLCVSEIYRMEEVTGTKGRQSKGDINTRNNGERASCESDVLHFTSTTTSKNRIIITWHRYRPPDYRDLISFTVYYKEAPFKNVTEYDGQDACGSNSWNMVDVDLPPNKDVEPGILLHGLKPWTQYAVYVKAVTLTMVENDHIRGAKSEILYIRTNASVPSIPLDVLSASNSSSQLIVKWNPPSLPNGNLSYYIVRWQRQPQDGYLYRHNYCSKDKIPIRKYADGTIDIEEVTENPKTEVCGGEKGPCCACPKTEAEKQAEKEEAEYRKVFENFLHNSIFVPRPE
Insulin-like growth factor 1 receptor (Homo sapiens), sequence (P08069 741-1367 limits assumed): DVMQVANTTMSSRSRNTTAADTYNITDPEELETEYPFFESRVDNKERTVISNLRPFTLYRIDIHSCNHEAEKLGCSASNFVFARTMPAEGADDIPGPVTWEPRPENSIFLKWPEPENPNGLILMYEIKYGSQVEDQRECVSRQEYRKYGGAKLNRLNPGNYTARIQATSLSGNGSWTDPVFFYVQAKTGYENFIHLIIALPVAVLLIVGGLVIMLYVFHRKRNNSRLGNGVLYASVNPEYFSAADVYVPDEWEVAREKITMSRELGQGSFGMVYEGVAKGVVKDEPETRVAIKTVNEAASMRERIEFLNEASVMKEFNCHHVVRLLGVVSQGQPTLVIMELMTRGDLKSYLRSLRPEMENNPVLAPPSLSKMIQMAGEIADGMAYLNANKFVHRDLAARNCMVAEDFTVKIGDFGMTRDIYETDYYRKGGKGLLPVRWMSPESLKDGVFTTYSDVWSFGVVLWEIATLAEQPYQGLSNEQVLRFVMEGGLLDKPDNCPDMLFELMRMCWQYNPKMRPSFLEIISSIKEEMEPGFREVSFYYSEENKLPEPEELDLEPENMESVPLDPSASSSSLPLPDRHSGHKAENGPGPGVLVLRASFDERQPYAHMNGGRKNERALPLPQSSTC
Description: Inhibition of His-tagged human recombinant IGF1R (960 to 1397 residues) expressed in baculovirus using Fluorescein-Poly GT as substrate at 100 nM

[3] = molecular target: Protein kinase C theta type (Homo sapiens) (UniProt Q04759); conditions: 100 nM
Description: Inhibition of full length His-tagged human recombinant PKCtheta expressed in baculovirus using Fluorescein-PKC as substrate at 100 nM

[4] = molecular target: T1, Epidermal growth factor receptor (Homo sapiens, UniProt P00533); test: Inhibition of GST-tagged human recombinant EGFR (668 to1210 residues) expressed in baculovirus using Fluorescein-Poly GT as substrate
T1 sequence (P00533 whole entry, the tested form may be a part): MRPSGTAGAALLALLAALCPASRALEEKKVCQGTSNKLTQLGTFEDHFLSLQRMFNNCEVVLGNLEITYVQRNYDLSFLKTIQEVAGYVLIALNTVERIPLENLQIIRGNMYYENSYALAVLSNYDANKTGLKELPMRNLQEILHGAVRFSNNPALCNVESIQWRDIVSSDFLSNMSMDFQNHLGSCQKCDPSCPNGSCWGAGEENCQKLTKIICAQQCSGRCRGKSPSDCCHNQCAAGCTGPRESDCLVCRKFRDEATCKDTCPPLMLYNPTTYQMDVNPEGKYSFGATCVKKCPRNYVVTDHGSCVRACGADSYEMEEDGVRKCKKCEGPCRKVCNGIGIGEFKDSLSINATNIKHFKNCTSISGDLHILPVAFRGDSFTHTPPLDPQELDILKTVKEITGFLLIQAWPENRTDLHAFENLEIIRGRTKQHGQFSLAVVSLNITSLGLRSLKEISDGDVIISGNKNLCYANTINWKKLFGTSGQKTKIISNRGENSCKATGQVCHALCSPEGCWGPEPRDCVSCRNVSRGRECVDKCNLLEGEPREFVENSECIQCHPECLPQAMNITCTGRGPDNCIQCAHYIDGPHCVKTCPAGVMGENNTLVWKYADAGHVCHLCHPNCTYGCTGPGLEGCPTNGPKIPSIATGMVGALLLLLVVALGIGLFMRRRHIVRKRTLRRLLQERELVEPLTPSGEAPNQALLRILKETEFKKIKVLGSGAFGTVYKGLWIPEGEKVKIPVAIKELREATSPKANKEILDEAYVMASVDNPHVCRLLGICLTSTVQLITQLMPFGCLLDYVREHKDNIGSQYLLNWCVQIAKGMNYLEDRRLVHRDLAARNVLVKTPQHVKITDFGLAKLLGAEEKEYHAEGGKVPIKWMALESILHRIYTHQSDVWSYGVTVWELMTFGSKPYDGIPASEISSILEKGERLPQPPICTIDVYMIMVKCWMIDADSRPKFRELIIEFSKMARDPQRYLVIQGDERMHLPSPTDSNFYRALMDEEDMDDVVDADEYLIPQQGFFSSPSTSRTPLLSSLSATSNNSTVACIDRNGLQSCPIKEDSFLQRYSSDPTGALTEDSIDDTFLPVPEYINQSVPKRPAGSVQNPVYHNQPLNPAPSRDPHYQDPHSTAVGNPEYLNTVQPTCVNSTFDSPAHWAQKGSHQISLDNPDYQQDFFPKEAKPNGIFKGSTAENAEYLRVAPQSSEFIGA

[5] = molecular target: Tyrosine-protein kinase SYK (Homo sapiens) (UniProt P43405); conditions: 100 nM
Description: Inhibition of GST-tagged full length human recombinant SYK expressed in baculovirus using Fluorescein-Poly GT as substrate at 100 nM

[6] = molecular target: Macrophage-stimulating protein receptor (Homo sapiens) (UniProt Q04912); conditions: 100 nM
Description: Inhibition of GST-tagged human recombinant MST1R (983 to 1400 residues) expressed in baculovirus using Fluorescein-Poly GT as substrate at 100 nM

[7] = molecular target: AMP-activated protein kinase, AMPK (Homo sapiens) (UniProt P54646+O43741+P54619+Q9UGJ0+Q9Y478+Q13131+Q9UGI9); conditions: 100 nM
Description: Inhibition of full length human recombinant AMPK expressed in baculovirus expression system using Fluorescein-CREBtide as substrate at 100 nM

[8] = molecular target: High affinity nerve growth factor receptor (Homo sapiens) (UniProt P04629); conditions: 100 nM
Description: Inhibition of His-tagged human recombinant TRKA (441 to 796 residues) expressed in baculovirus using Fluorescein-Poly GT as substrate at 100 nM

[9] = molecular target: Insulin receptor-related protein (Homo sapiens) (UniProt P14616); conditions: 100 nM
Description: Inhibition of GST-tagged human recombinant INSRR (944 to 1297 residues) expressed in baculovirus using Fluorescein-Poly GT as substrate at 100 nM

[10] = molecular target: Ephrin type-A receptor 1 (Homo sapiens) (UniProt P21709); conditions: 100 nM
Description: Inhibition of GST-tagged human recombinant EPHA1 (568 to 976 residues) expressed in baculovirus using Fluorescein-Poly GT as substrate at 100 nM

[11] = molecular target: Tyrosine-protein kinase Lyn (Homo sapiens, UniProt P07948); test: Inhibition of GST-tagged full length human recombinant LYNA expressed in baculovirus using Fluorescein-Poly GT as substrate at 100 nM
[12] = molecular target: Myosin light chain kinase, smooth muscle (Homo sapiens) (UniProt Q15746); conditions: 100 nM
Description: Inhibition of GST-tagged human recombinant MLCK (1428 to 1771 residues) expressed in baculovirus at 100 nM

[13] = molecular target: Inhibitor of nuclear factor kappa-B kinase subunit alpha (Homo sapiens) (UniProt O15111); conditions: 100 nM
Description: Inhibition of His-tagged full length human recombinant IKKalpha expressed in baculovirus using Fluorescein-IKK as substrate at 100 nM

[14] = molecular target: Proto-oncogene tyrosine-protein kinase ROS (Homo sapiens) (UniProt P08922); conditions: 100 nM
Description: Inhibition of GST-tagged human recombinant ROS1 (1883 to 2347 residues) expressed in baculovirus using Fluorescein-Poly GT as substrate at 100 nM

[15] = molecular target: Phosphorylase b kinase gamma catalytic chain, liver/testis isoform (Homo sapiens) (UniProt P15735); conditions: 100 nM
Phosphorylase b kinase gamma catalytic chain, liver/testis isoform (Homo sapiens), sequence (P15735 whole entry, canonical isoform): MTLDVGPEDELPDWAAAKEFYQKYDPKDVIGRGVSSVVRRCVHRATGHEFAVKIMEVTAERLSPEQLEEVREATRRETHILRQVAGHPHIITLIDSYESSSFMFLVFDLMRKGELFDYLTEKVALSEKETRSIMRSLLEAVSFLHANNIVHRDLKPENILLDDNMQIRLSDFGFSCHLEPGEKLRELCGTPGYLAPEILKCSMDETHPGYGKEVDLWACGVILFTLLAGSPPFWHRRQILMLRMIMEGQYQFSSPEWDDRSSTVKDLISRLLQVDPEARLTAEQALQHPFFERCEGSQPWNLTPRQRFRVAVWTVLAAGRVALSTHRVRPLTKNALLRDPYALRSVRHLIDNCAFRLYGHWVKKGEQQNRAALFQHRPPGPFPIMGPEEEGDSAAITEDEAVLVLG
Description: Inhibition of human full length recombinant N-terminal GST-tagged PHKG2 expressed in baculovirus at 100 nM

[16] = molecular target: T2, Tyrosine-protein kinase HCK (Homo sapiens, UniProt P08631); test: Inhibition of GST-tagged full length human recombinant HCK expressed in baculovirus using Fluorescein-Poly GT as substrate at 100 nM
[17] = Tmax in Swiss mouse plasma at 2 mg/kg, iv by LC/MS/MS analysis; assay type: ADME, organism-based
HUVEC = test: Antiangiogenic activity in HUVEC after 72 hrs by MTT assay; assay type: functional, cell-based; conditions: Homo sapiens
[18] = molecular target: Ephrin type-A receptor 2 (Homo sapiens) (UniProt P29317); conditions: 100 nM
Description: Inhibition of GST-tagged human recombinant EPHA2 (560 to 976 residues) expressed in baculovirus using Fluorescein-Poly GT as substrate at 100 nM

[19] = molecular target: Tyrosine-protein kinase CSK (Homo sapiens) (UniProt P41240); conditions: 100 nM
Description: Inhibition of His-tagged full length human recombinant CSK expressed in Escherichia coli using Fluorescein-Poly GT as substrate at 100 nM

[20] = molecular target: T1, Epidermal growth factor receptor; test: Inhibition of GST-tagged human recombinant EGFR (668 to1210 residues) expressed in baculovirus using Fluorescein-Poly GT as substrate at 100 nM
[21] = molecular target: Receptor tyrosine-protein kinase erbB-4 (Homo sapiens) (UniProt Q15303); conditions: 100 nM
Description: Inhibition of GST-tagged human recombinant ERBB4 (708 to 993 residues) expressed in baculovirus using Fluorescein-Poly GT as substrate at 100 nM

[22] = molecular target: Tyrosine-protein kinase JAK2 (Homo sapiens) (UniProt O60674); conditions: 100 nM
Description: Inhibition of GST-tagged human recombinant JAK2 (809 to 1153 +9 residues) expressed in baculovirus using GFP-ST AT1 as substrate at 100 nM

[23] = molecular target: Platelet-derived growth factor receptor alpha (Homo sapiens, UniProt P16234); test: Inhibition of full length GST-tagged human recombinant PDGFRalpha expressed in baculovirus using Fluorescein-Poly GT as substrate
[24] = molecular target: Tyrosine-protein kinase Lck (Homo sapiens, UniProt P06239); test: Inhibition of His-tagged full length human recombinant LCK expressed in baculovirus using Fluorescein-Poly GT as substrate at 100 nM
[25] = molecular target: Tyrosine-protein kinase ABL1 (Homo sapiens, UniProt P00519, G250E); test: Inhibition of His-tagged full length human recombinant ABL G250E mutant expressed in baculovirus using Fluorescein-Poly GT as substrate
HepG2 = test: Antiproliferative activity against human HepG2 cells after 72 hrs by MTT assay; assay type: functional, cell-based; conditions: HepG2, 72 h
[26] = AUC(0 to infinity) in Swiss mouse plasma at 2 mg/kg, iv by LC/MS/MS analysis; assay type: ADME, organism-based; set-up: dose 2 mg/kg, route intravenous, time infinity
[27] = molecular target: Proto-oncogene tyrosine-protein kinase receptor Ret (Homo sapiens) (UniProt P07949); conditions: 100 nM
Description: Inhibition of GST-tagged human recombinant RET (658 to 1114 residues) expressed in baculovirus using Fluorescein-Poly GT as substrate at 100 nM

[28] = molecular target: Ephrin type-B receptor 4 (Homo sapiens) (UniProt P54760); conditions: 100 nM
Description: Inhibition of His-tagged human recombinant EPHB4 (561 to 987 residues) expressed in baculovirus using Fluorescein-Poly GT as substrate at 100 nM

[29] = molecular target: Serine/threonine-protein kinase mTOR (Homo sapiens) (UniProt P42345); conditions: 100 nM
Description: Inhibition of GST-tagged human recombinant mTOR (1360 to 2549 residues) expressed in baculovirus using GFP-4E -BP1 as substrate at 100 nM

[30] = tested on: Tyrosine-protein kinase ABL1 (Homo sapiens), P00519 [T315I]; conditions: 100 nM
Description: Inhibition of His-tagged full length human recombinant ABL1 T315I mutant expressed in baculovirus using Fluorescein-Poly GT as substrate at 100 nM

[31] = molecular target: Protein kinase C delta type (Homo sapiens) (UniProt Q05655); conditions: 100 nM
Protein kinase C delta type (Homo sapiens), sequence (Q05655 whole entry, looked up): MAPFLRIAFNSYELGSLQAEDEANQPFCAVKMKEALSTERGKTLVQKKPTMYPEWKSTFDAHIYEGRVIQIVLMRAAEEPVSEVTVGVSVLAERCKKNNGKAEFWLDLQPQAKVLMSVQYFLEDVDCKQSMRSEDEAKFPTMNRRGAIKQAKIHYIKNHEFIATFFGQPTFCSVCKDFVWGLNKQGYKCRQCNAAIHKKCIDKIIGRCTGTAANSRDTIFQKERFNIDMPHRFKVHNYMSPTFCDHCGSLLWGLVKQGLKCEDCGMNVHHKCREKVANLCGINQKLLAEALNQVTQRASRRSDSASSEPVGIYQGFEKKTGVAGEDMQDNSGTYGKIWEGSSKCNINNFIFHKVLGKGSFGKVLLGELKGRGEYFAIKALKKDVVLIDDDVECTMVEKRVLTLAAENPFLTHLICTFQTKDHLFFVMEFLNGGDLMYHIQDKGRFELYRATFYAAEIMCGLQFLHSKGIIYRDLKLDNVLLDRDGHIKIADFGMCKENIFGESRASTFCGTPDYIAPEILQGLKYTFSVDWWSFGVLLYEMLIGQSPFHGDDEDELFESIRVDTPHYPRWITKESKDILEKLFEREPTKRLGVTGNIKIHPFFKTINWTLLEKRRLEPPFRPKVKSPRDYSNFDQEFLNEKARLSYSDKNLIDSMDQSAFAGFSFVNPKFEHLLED
Description: Inhibition of full length human recombinant PKCdelta expressed in baculovirus using Fluorescein-PKC as substrate at 100 nM

A549 = test: Antiproliferative activity against human A549 cells after 72 hrs by MTT assay; assay type: functional, cell-based; conditions: A549, 72 h
[32] = molecular target: Epidermal growth factor receptor (Homo sapiens, UniProt P00533, T790M); test: Inhibition of GST-tagged human recombinant EGFR T790M mutant (668 to 1210 residues) expressed in baculovirus using Fluorescein-Poly GT as substrate
Epidermal growth factor receptor (Homo sapiens, UniProt P00533, T790M), sequence (P00533 25-1210 T790M limits assumed): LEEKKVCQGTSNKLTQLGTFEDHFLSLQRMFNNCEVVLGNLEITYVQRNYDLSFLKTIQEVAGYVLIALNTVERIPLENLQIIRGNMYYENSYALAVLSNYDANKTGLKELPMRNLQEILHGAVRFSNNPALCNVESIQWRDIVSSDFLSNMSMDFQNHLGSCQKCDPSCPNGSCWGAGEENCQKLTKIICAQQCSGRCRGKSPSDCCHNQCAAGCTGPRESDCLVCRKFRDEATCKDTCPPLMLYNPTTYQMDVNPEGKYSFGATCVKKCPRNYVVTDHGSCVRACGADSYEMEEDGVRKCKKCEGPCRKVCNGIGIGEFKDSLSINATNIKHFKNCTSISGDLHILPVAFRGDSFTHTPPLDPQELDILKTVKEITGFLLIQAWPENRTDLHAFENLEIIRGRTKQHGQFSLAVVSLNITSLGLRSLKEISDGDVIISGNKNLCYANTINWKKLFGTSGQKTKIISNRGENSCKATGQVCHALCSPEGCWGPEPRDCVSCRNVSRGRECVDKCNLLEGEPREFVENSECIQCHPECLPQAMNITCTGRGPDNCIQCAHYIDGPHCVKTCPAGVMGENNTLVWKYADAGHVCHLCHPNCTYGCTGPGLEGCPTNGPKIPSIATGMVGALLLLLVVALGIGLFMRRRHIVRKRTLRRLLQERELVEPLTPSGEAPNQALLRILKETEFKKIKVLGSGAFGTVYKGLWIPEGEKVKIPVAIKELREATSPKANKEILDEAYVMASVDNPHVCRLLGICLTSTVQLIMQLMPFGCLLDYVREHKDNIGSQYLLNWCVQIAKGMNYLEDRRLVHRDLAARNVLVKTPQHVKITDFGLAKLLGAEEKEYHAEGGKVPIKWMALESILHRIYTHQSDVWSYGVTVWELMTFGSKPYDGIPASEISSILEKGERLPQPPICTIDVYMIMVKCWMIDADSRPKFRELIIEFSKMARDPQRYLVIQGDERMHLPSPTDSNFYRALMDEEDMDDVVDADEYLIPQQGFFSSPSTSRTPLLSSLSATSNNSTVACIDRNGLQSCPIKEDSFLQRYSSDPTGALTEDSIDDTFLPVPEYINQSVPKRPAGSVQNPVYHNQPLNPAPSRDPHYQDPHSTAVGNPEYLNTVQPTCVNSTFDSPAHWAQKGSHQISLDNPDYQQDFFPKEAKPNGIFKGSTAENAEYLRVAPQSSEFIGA

[33] = molecular target: Tyrosine-protein kinase ABL1 (Homo sapiens, UniProt P00519, E255K); test: Inhibition of His-tagged full length human recombinant ABL E255K mutant expressed in baculovirus using Fluorescein-Poly GT as substrate
[34] = molecular target: Tyrosine-protein kinase Fgr (Homo sapiens) (UniProt P09769); test: Inhibition of His-tagged full length human recombinant FGR expressed in baculovirus using Fluorescein-Poly GT as substrate at 100 nM
[35] = molecular target: T2, Tyrosine-protein kinase HCK; test: Inhibition of GST-tagged full length human recombinant HCK expressed in baculovirus using Fluorescein-Poly GT as substrate
[36] = molecular target: Cytoplasmic tyrosine-protein kinase BMX (Homo sapiens) (UniProt P51813); test: Inhibition of His-tagged full length human recombinant BMX expressed in baculovirus using Fluorescein-Poly GT as substrate at 100 nM
[37] = molecular target: NUAK family SNF1-like kinase 1 (Homo sapiens) (UniProt O60285); conditions: 100 nM
Description: Inhibition of NUAK1 (unknown origin) at 100 nM

[38] = molecular target: Protein kinase C gamma type (Homo sapiens) (UniProt P05129); conditions: 100 nM
Description: Inhibition of full length human recombinant PKCgamma expressed in baculovirus using Fluorescein-PKC as substrate at 100 nM

COC(=O)c1cc2cc(NCc3cc(NC(=O)c4cc(-n5cnc(C)c5)cc(C(F)(F)F)c4)ccc3C)cnc2[nH]1
inhibition [1]: 54%
inhibition [2]: < 40%
inhibition [3]: < 40%
IC50 [4]: 15 nM
inhibition [5]: < 40%
inhibition [6]: < 40%
inhibition [7]: < 40%
inhibition [8]: < 40%
inhibition [9]: < 40%
inhibition [10]: < 40%
inhibition [11]: > 80%
inhibition [12]: < 40%
inhibition [13]: < 40%
inhibition [14]: < 40%
inhibition [15]: < 40%
inhibition [16]: > 80%
Tmax [17]: 10 min
EC50 (HUVEC): 34 nM
inhibition [18]: < 40%
inhibition [19]: < 40%
inhibition [20]: 82%
inhibition [21]: < 40%
inhibition [22]: < 40%
IC50 [23]: 50 nM
inhibition [24]: > 80%
IC50 [25]: 46 nM
EC50 (HepG2): 38 nM
AUC(0-inf) [26]: 558 ng·h/mL
inhibition [27]: < 40%
inhibition [28]: < 40%
inhibition [29]: < 40%
inhibition [30]: < 40%
inhibition [31]: < 40%
EC50 (A549): 64 nM
IC50 [32]: 112 nM
IC50 [33]: 73 nM
inhibition [34]: > 80%
IC50 [35]: 22 nM
inhibition [36]: > 80%
inhibition [37]: < 40%
inhibition [38]: < 40%
